# Measurements published in patent publication US11827629B2, “CDGSH iron sulfur domain 2 activators and use thereof” (National Health Research Institutes, priority 2021, dated 2023).
# Test system: Cisd2 promoter with firefly luciferase reporter
# Assay: Cisd2-luciferase reporter assay in HEK293-CISD2 cells
# Type: cell-based
# Settings: Homo sapiens, 24 hours incubation, luciferase luminescence
# Procedure: A typical in vitro screening method includes the following steps: (i) obtaining an initial level of Cisd2 in a batch of human embryonic kidney cells 293 (HEK-293 cells) that express Cisd2, (ii) treating the batch of HEK-293 cells with a compound of this invention, and (iii) analyzing the level of Cisd2 after the treatment, thereby determining the potency of the compound as a Cisd2 activator.
# Compounds 1-109 were tested for increasing the level of Cisd2 in human embryonic kidney cells 293 (HEK293), a transfected cell line expressing Cisd2, using the Cisd2-luciferase reporter assay as follows.
# The transfected HEK293 cells stably expressed Cisd2 promoter with firefly luciferase reporter (HEK293-CISD2). They were kept in Dulbecco's modified Eagle's medium (DMEM) (Gibco, New York, NY, USA). Culture medium was supplemented with 10% heat-inactivated fetal bovine serum (FBS), 2 mM L-Glutamine, 1 mM sodium pyruvate, 0.1% MEM Non-Essential Amino Acids, 1 ug/ml puromycin and 1% penicillin/streptomycin (HyClone, Logan, UT, USA). The cells were maintained at 37° C. in an incubator (Thermo Fisher Scientific, New York, NY, USA) with an atmosphere of 5% CO2. The stably transfected cells were seeded in 384-well plates at a density of 3×10^3 cells/well. After incubation with tested compounds at 37° C. for 24 hours, ONE-Glo™ Luciferase Assay System (Promega, Madison, WI, USA) was added at room temperature for 5 minutes to detect any luciferase activity. Luminescence intensity was registered using plate reader Victor^2V (PerkinElmer, Boston, MA, USA).
# EC50 values in this table are presented in three classes, i.e., A: <1 μM, B: 1 μM-5 μM, and C: 5 μM-10 μM.
row,SMILES,EC50 [nM]
1,"Cc1cnc(SCC(=O)N2Cc3ccc(F)cc3C2)s1 [Compound 12, 1-(5-fluoro-1,3-dihydro-2H-isoindol-2-yl)-2-[(5-methyl-1,3-thiazol-2-yl)sulfanyl]ethanone]",< 1000
2,"O=C(CCSc1ccccn1)N1Cc2ccc(F)cc2C1 [Compound 24, 1-(5-fluoro-1,3-dihydro-2H-isoindol-2-yl)-3-(pyridin-2-ylsulfanyl)propan-1-one]",< 1000
3,"O=C(NCCSc1ccccn1)N1Cc2ccccc2C1 [Compound 25, N-[2-(pyridin-2-ylsulfanyl)ethyl]-1,3-dihydro-2H-isoindole-2-carboxamide]",1000 to 5000
4,"O=C(N1Cc2ccc(F)cc2C1)C(F)(F)Sc1ccccn1 [Compound 26, 2,2-difluoro-1-(5-fluoro-1,3-dihydro-2H-isoindol-2-yl)-2-(pyridin-2-ylsulfanyl)ethanone]",< 1000
5,"O=C(N1Cc2ccccc2C1)C(F)(F)CSc1ccccn1 [Compound 27, 1-(1,3-dihydro-2H-isoindol-2-yl)-2,2-difluoro-3-(pyridin-2-ylsulfanyl)propan-1-one]",1000 to 5000
6,"COc1ccc2c(c1)CN(C(=O)CS(=O)(=O)c1nccs1)C2 [Compound 29, 1-(5-methoxy-1,3-dihydro-2H-isoindol-2-yl)-2-(1,3-thiazol-2-ylsulfonyl)ethanone]",< 1000
7,"O=C(CS(=O)(=O)c1nccs1)N1Cc2cccc(F)c2C1 [Compound 30, 1-(4-fluoro-1,3-dihydro-2H-isoindol-2-yl)-2-(1,3-thiazol-2-ylsulfonyl)ethanone]",< 1000
8,"O=C(CS(=O)(=O)c1nccs1)N1Cc2ccc(F)cc2C1 [Compound 31, 1-(5-fluoro-1,3-dihydro-2H-isoindol-2-yl)-2-(1,3-thiazol-2-ylsulfonyl)ethanone]",< 1000
9,"O=C(CS(=O)(=O)c1nccs1)N1Cc2cc(F)c(F)cc2C1 [Compound 32, 1-(5,6-difluoro-1,3-dihydro-2H-isoindol-2-yl)-2-(1,3-thiazol-2-ylsulfonyl)ethanone]",< 1000
10,"O=C(CS(=O)(=O)c1nccs1)N1Cc2ccc(Cl)cc2C1 [Compound 33, 1-(5-chloro-1,3-dihydro-2H-isoindol-2-yl)-2-(1,3-thiazol-2-ylsulfonyl)ethanone]",< 1000
11,"O=C(CS(=O)(=O)c1nccs1)N1Cc2cc(Cl)c(Cl)cc2C1 [Compound 34, 1-(5,6-dichloro-1,3-dihydro-2H-isoindol-2-yl)-2-(1,3-thiazol-2-ylsulfonyl)ethanone]",< 1000
12,"COC(=O)c1ccc2c(c1)CN(C(=O)CS(=O)(=O)c1nccs1)C2 [Compound 35, methyl 2-[(1,3-thiazol-2-ylsulfonyl)acetyl]-2,3-dihydro-1H-isoindole-5-carboxylate]",< 1000
13,"O=C(CS(=O)(=O)c1nccs1)N1Cc2ccc([N+](=O)[O-])cc2C1 [Compound 36, 1-(5-nitro-1,3-dihydro-2H-isoindol-2-yl)-2-(1,3-thiazol-2-ylsulfonyl)ethanone]",1000 to 5000
14,"COc1ccc2c(c1)CN(C(=O)CS(=O)(=O)c1ccccn1)C2 [Compound 39, 1-(5-methoxy-1,3-dihydro-2H-isoindol-2-yl)-2-(pyridin-2-ylsulfonyl)ethanone]",< 1000
15,"O=C(CS(=O)(=O)c1ccccn1)N1Cc2ccc(F)cc2C1 [Compound 40, 1-(5-fluoro-1,3-dihydro-2H-isoindol-2-yl)-2-(pyridin-2-ylsulfonyl)ethanone]",< 1000
16,"Cc1cccc(S(=O)(=O)CC(=O)N2Cc3ccccc3C2)n1 [Compound 41, 1-(1,3-dihydro-2H-isoindol-2-yl)-2-[(6-methylpyridin-2-yl)sulfonyl]ethanone]",1000 to 5000
17,"O=C(CS(=O)(=O)c1cccc(Cl)n1)N1Cc2ccccc2C1 [Compound 42, 2-[(6-chloropyridin-2-yl)sulfonyl]-1-(1,3-dihydro-2H-isoindol-2-yl)ethanone]",1000 to 5000

# The next lines start with the values.
row,EC50 [nM],SMILES
1,< 1000,"O=C(CSc1nccs1)N1Cc2ccccc2C1 [Compound 1, 1-(1,3-dihydro-2H-isoindol-2-yl)-2-(1,3-thiazol-2-ylsulfanyl)ethanone]"
2,< 1000,"COc1ccc2c(c1)CN(C(=O)CSc1nccs1)C2 [Compound 2, 1-(5-methoxy-1,3-dihydro-2H-isoindol-2-yl)-2-(1,3-thiazol-2-ylsulfanyl)ethanone]"
3,1000 to 5000,"O=C(CSc1nccs1)N1Cc2ccc(O)cc2C1 [Compound 3, 1-(5-hydroxy-1,3-dihydro-2H-isoindol-2-yl)-2-(1,3-thiazol-2-ylsulfanyl)ethanone]"
4,< 1000,"O=C(CSc1nccs1)N1Cc2cccc(F)c2C1 [Compound 4, 1-(4-fluoro-1,3-dihydro-2H-isoindol-2-yl)-2-(1,3-thiazol-2-ylsulfanyl)ethanone]"
5,< 1000,"O=C(CSc1nccs1)N1Cc2ccc(F)cc2C1 [Compound 5, 1-(5-fluoro-1,3-dihydro-2H-isoindol-2-yl)-2-(1,3-thiazol-2-ylsulfanyl)ethanone]"
6,1000 to 5000,"O=C(CSc1nccs1)N1Cc2cc(F)c(F)cc2C1 [Compound 6, 1-(5,6-difluoro-1,3-dihydro-2H-isoindol-2-yl)-2-(1,3-thiazol-2-ylsulfanyl)ethanone]"
7,< 1000,"O=C(CSc1nccs1)N1Cc2ccc(Cl)cc2C1 [Compound 7, 1-(5-chloro-1,3-dihydro-2H-isoindol-2-yl)-2-(1,3-thiazol-2-ylsulfanyl)ethanone]"
8,1000 to 5000,"O=C(CSc1nccs1)N1Cc2cc(Cl)c(Cl)cc2C1 [Compound 8, 1-(5,6-dichloro-1,3-dihydro-2H-isoindol-2-yl)-2-(1,3-thiazol-2-ylsulfanyl)ethanone]"
9,< 1000,"COC(=O)c1ccc2c(c1)CN(C(=O)CSc1nccs1)C2 [Compound 9, methyl 2-[(1,3-thiazol-2-ylsulfanyl)acetyl]-2,3-dihydro-1H-isoindole-5-carboxylate]"
10,1000 to 5000,"O=C(CSc1nccs1)N1Cc2ccc([N+](=O)[O-])cc2C1 [Compound 10, 1-(5-nitro-1,3-dihydro-2H-isoindol-2-yl)-2-(1,3-thiazol-2-ylsulfanyl)ethanone]"
11,< 1000,"Cc1cnc(SCC(=O)N2Cc3ccccc3C2)s1 [Compound 11, 1-(1,3-dihydro-2H-isoindol-2-yl)-2-[(5-methyl-1,3-thiazol-2-yl)sulfanyl]ethanone]"
12,< 1000,"O=C(CSc1ccccn1)N1Cc2ccccc2C1 [Compound 13, 1-(1,3-dihydro-2H-isoindol-2-yl)-2-(pyridin-2-ylsulfanyl)ethanone]"
13,< 1000,"COc1ccc2c(c1)CN(C(=O)CSc1ccccn1)C2 [Compound 14, 1-(5-methoxy-1,3-dihydro-2H-isoindol-2-yl)-2-(pyridin-2-ylsulfanyl)ethanone]"
14,1000 to 5000,"Nc1ccc2c(c1)CN(C(=O)CSc1ccccn1)C2 [Compound 15, 1-(5-amino-1,3-dihydro-2H-isoindol-2-yl)-2-(pyridin-2-ylsulfanyl)ethanone]"
15,< 1000,"O=C(CSc1ccccn1)N1Cc2ccc(F)cc2C1 [Compound 16, 1-(5-fluoro-1,3-dihydro-2H-isoindol-2-yl)-2-(pyridin-2-ylsulfanyl)ethanone]"
16,1000 to 5000,"Cc1cccc(SCC(=O)N2Cc3ccccc3C2)n1 [Compound 17, 1-(1,3-dihydro-2H-isoindol-2-yl)-2-[(6-methylpyridin-2-yl)sulfanyl]ethanone]"
17,1000 to 5000,"O=C(CSc1cccc(Cl)n1)N1Cc2ccccc2C1 [Compound 18, 2-[(6-chloropyridin-2-yl)sulfanyl]-1-(1,3-dihydro-2H-isoindol-2-yl)ethanone]"
18,1000 to 5000,"Cc1nnc(SCC(=O)N2Cc3ccccc3C2)s1 [Compound 19, 1-(1,3-dihydro-2H-isoindol-2-yl)-2-[(5-methyl-1,3,4-thiadiazol-2-yl)sulfanyl]ethanone]"
19,1000 to 5000,"Nc1nnc(SCC(=O)N2Cc3ccccc3C2)s1 [Compound 20, 2-[(5-amino-1,3,4-thiadiazol-2-yl)sulfanyl]-1-(1,3-dihydro-2H-isoindol-2-yl)ethanone]"
20,5000 to 10000,"O=C(CSc1ncc[nH]1)N1Cc2ccccc2C1 [Compound 21, 1-(1,3-dihydro-2H-isoindol-2-yl)-2-(1H-imidazol-2-ylsulfanyl)ethanone]"
21,5000 to 10000,"O=C(CSc1ncccn1)N1Cc2ccccc2C1 [Compound 22, 1-(1,3-dihydro-2H-isoindol-2-yl)-2-(pyrimidin-2-ylsulfanyl)ethanone]"
22,< 1000,"O=C(CCSc1nccs1)N1Cc2ccccc2C1 [Compound 23, 1-(1,3-dihydro-2H-isoindol-2-yl)-3-(1,3-thiazol-2-ylsulfanyl)propan-1-one]"
23,5000 to 10000,"Cc1cnc(S(=O)(=O)CC(=O)N2Cc3ccccc3C2)s1 [Compound 37, 1-(1,3-dihydro-2H-isoindol-2-yl)-2-[(5-methyl-1,3-thiazol-2-yl)sulfonyl]ethanone]"
24,< 1000,"O=C(CS(=O)(=O)c1ccccn1)N1Cc2ccccc2C1 [Compound 38, 1-(1,3-dihydro-2H-isoindol-2-yl)-2-(pyridin-2-ylsulfonyl)ethanone]"
25,1000 to 5000,"O=C(CS(=O)(=O)c1ncccn1)N1Cc2ccccc2C1 [Compound 43, 1-(1,3-dihydro-2H-isoindol-2-yl)-2-(pyrimidin-2-ylsulfonyl)ethanone]"
